Where a name gives a salt, the structure may show the parent alone.
Tested on: mice
Assay: Hot plate test (intravenous administration)
Assay type: in vivo, mouse
Details: 10 mg/kg i.v.
Procedure: Male albino inbred mice supplied by Charles River [CD-1 (ICR)BR] weighing between 20 and 30 grams were used. The mice were placed on a 55° C. hot plate 60, 40, and 20 minutes prior to drug administration and the latencies to the lick of a paw or to a jump were recorded. Mice not responding within 15 seconds were discarded from the study. The test compound or vehicle was then administered intravenously and the animals' response latencies on the hot plate were recorded again 10, 30 and 60 minutes later. The initial test dose was 10 mg/kg. Mice not responding within 30 seconds were removed from the hot plate to prevent tissue damage and assigned the cut-off value of 30 seconds. Elevation of the response latencies to greater than twice the median of the three pre-drug latency measurements was indicative of analgesia. For each time point, the data were expressed as the number of animals having analgesic response latencies out of the total number tested. The number of analgesic animals in the test compound-treated group was then compared with the number of analgesic animals in the vehicle-treated group at each time point using Fisher's Exact Probability Test. S. Siegel, Nonparametric Statistics for the Behavioral Sciences. McGraw-Hill, New York, pp. 96-104 (1956 ). […]

Compound	Hot Plate (I.V.) 10 mg/kg: rating and animals with analgesic latencies / tested
Cc1cc(O)cc(C)c1C[C@H](N)C(=O)N[C@H](C)C(=O)NCCCc1ccccc1 [Example 5, 2,6-dimethyltyrosyl-N-(3-phenylpropyl)-D-alaninamide, hydrochloride]	Active 6/7
tyrosine-D-alanine-phenylpropylamide [Prior Art, reference compound]	Inactive 0/10
